Test system: 282377-053-R-J1-PDC complex spheroid viability
Assay: Anticancer human tumor 282377-053-R-J1-PDC patient-derived colon adenocarcinoma cell line growth inhibition [RAS]
Conditions: for viability, T/C: stronger effect = lower value
Outline: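 Agents were tested in combination matrices in half-log decrements from a top concentration at or near clinical Cmax (10 microM if undetermined). Targets were multi-cell spheroids of tumour lines plus HUVEC and MSC stromal cells.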
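Further: spheroids exposed to agents for seven days before readout.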
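Wherever viability, T/C is given: luminescence viability as percent of DMSO vehicle control wells.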

In the case of `O=C(c1ccc(F)c(F)c1Nc1ccc(I)cc1F)N1CC(O)([C@@H]2CCCCN2)C1`, the viability, T/C (compound 0.00316 µM) is reported as 75.2% [middle of 4 runs], the viability, T/C (compound 0.1 µM) is reported as 53.5% [middle of 4 runs] and the viability, T/C (compound 0.316 µM) is reported as 28.1% [middle of 4 runs]. The viability, T/C (compound 1 µM) was 20.8% [middle of 4 runs] and the IC50 (curve of compound) was 79.8 nM [middle of 4 runs].

`O=C(c1ccc(F)c(F)c1Nc1ccc(I)cc1F)N1CC(O)([C@@H]2CCCCN2)C1` + CCn1c(-c2cc(N3CCN(C)CC3)cnc2C(C)OC)c2c3cc(ccc31)-c1csc(n1)CC(NC(=O)C1CC1C)C(=O)N1CCCC(N1)C(=O)OCC(C)(C)C2 showed an IC50 (curve of first compound, second compound 0.000949 µM) of 38.2 nM, an IC50 (curve of first compound, second compound 0.003 µM) of 56.7 nM and an IC50 (curve of first compound, second compound 0.00949 µM) of 37.7 nM. The IC50 (curve of first compound, second compound 0.03 µM) was 11.9 nM, the IC50 (curve of first compound, second compound 0.0949 µM) was 17.9 nM and the IC50 (curve of first compound, second compound 0.3 µM) was 14.3 nM. For the same compound, the viability, T/C (second compound 0.000949 µM, first compound 0.00316 µM) was 68.3%, the viability, T/C (second compound 0.000949 µM, first compound 0.01 µM) was 65.3% and the viability, T/C (second compound 0.000949 µM, first compound 0.0316 µM) was 49.6%. It also gave a viability, T/C (second compound 0.000949 µM, first compound 0.1 µM) of 39.9%, a viability, T/C (second compound 0.000949 µM, first compound 0.316 µM) of 27.2% and a viability, T/C (second compound 0.000949 µM, first compound 1 µM) of 16.9%. For the same compound, the viability, T/C (second compound 0.003 µM, first compound 0.00316 µM) was 70.3%, the viability, T/C (second compound 0.003 µM, first compound 0.01 µM) was 61.9% and the viability, T/C (second compound 0.003 µM, first compound 0.0316 µM) was 69.6%. It also gave a viability, T/C (second compound 0.003 µM, first compound 0.1 µM) of 33.2%, a viability, T/C (second compound 0.003 µM, first compound 0.316 µM) of 26.1% and a viability, T/C (second compound 0.003 µM, first compound 1 µM) of 14.6%. For the same compound, the viability, T/C (second compound 0.00949 µM, first compound 0.00316 µM) was 68%, the viability, T/C (second compound 0.00949 µM, first compound 0.01 µM) was 67.4% and the viability, T/C (second compound 0.00949 µM, first compound 0.0316 µM) was 51.7%. For the same compound, the viability, T/C (second compound 0.00949 µM, first compound 0.1 µM) was 34%, the viability, T/C (second compound 0.00949 µM, first compound 0.316 µM) was 22.1% and the viability, T/C (second compound 0.00949 µM, first compound 1 µM) was 16%. For the same compound, the viability, T/C (second compound 0.03 µM, first compound 0.00316 µM) was 77.4%, the viability, T/C (second compound 0.03 µM, first compound 0.01 µM) was 43% and the viability, T/C (second compound 0.03 µM, first compound 0.0316 µM) was 45.9%. The viability, T/C (second compound 0.03 µM, first compound 0.1 µM) was 26.7%, the viability, T/C (second compound 0.03 µM, first compound 0.316 µM) was 20.6% and the viability, T/C (second compound 0.03 µM, first compound 1 µM) was 15.4%. It also gave a viability, T/C (second compound 0.0949 µM, first compound 0.00316 µM) of 75.9%, a viability, T/C (second compound 0.0949 µM, first compound 0.01 µM) of 68% and a viability, T/C (second compound 0.0949 µM, first compound 0.0316 µM) of 32%. The viability, T/C (second compound 0.0949 µM, first compound 0.1 µM) was 23.8%, the viability, T/C (second compound 0.0949 µM, first compound 0.316 µM) was 18.1% and the viability, T/C (second compound 0.0949 µM, first compound 1 µM) was 13.8%. For the same compound, the viability, T/C (second compound 0.3 µM, first compound 0.00316 µM) was 67.8%, the viability, T/C (second compound 0.3 µM, first compound 0.01 µM) was 58.6% and the viability, T/C (second compound 0.3 µM, first compound 0.0316 µM) was 31.1%. It also gave a viability, T/C (second compound 0.3 µM, first compound 0.1 µM) of 21.5%, a viability, T/C (second compound 0.3 µM, first compound 0.316 µM) of 18.8% and a viability, T/C (second compound 0.3 µM, first compound 1 µM) of 15.8%.
